The structures appear in SMILES notation.

This data set is described as follows: Human HepG2 cell viability assay in 384 well format. The format is toxicity, cell-based. The arrangement: dose 125 nL, time 70.5 hour; cytotoxicity at 70.5 h: concentration not given beside the values. As to conditions: HepG2 cells, read-out: Inhibition.
Turning to `CCOc1nn(CC)cc1-c1nnc(SCc2cccnc2)n1CC`, the cytotoxicity at 70.5 h is -7.15%.
For `Cc1cc(CN2CCC(CNS(=O)(=O)c3c(C)noc3C)CC2)c(C)o1`, the cytotoxicity at 70.5 h amounted to 2.34%.
The value for `Cc1cc(CN2CCC(CNS(=O)(=O)c3ccc(Br)s3)CC2)c(C)o1` was -7.28%; that for `CCOc1ccc(S(=O)(=O)NCCc2ccc(N(C)C)cc2)cc1F` was -1.54%.
Then `O=C(CCc1ccccc1)NCC1CCN(Cc2cccs2)CC1`, with -8.06%; and `COCC(=O)NCC1CCN(Cc2ccsc2)CC1`, with 33.7%; and `O=C(COc1ccccc1)NCC1CCN(Cc2ccsc2)CC1`, with -4.27%.
As to `O=C(CCSc1ccccc1)NCC1CCN(Cc2ccsc2)CC1`, the cytotoxicity at 70.5 h amounted to 4.4%.
The value for `CCCc1nnsc1C(=O)NCC1CCN(c2ncccn2)CC1` was -13.9%; that for `O=C(NCCS(=O)(=O)N1CCN(c2ncccn2)CC1)C1CCCC1` was -5.6%.
Then `O=C(NCCS(=O)(=O)N1CCN(c2ncccn2)CC1)c1ccccc1`, with -7.9%; and `CCCS(=O)(=O)N1CCN(c2ccc3nnc(CC)n3n2)CC1`, with -12.7%.
The value for `COc1ccc(C(=O)NCC(c2cccn2C)N2CCCC2)cc1OC` (configuration not stated) was -4.98%; that for `COc1ccccc1C(=O)NCC(c1cccn1C)N1CCOCC1` (configuration not stated) was -6.22%; that for `Cc1ccc(C)c(C(=O)NCC(c2cccn2C)N2CCCCCC2)c1` (configuration not stated) was -1.53%.
Take `CC(=O)Nc1cc(C2CC2)nn1-c1nc(C)c(C)c(=O)[nH]1`: the cytotoxicity at 70.5 h was determined as 38.4%.
The value for `CCc1c(C)nc(-n2nc(C3CC3)cc2NC(C)=O)[nH]c1=O` was 1.53%; that for `Cn1nc2c(c1NC(=O)c1ccc(Cl)s1)CCC2` was -8.38%; that for `Cc1cc(=O)[nH]c(-n2nc(C)c(CCC(=O)NCc3ccco3)c2C)n1` was 31.1%.
Then `Cc1cc(=O)[nH]c(-n2nc(C)c(CCC(=O)Nc3nc(C)cs3)c2C)n1`, with -3.34%; and `Cc1cc(=O)[nH]c(-n2nc(C)c(CCC(=O)NCC(C)C)c2C)n1`, with -4.48%.
On to `Cc1nnc(NC(=O)c2c3c(nn2C2CCS(=O)(=O)C2)CCC3)s1` (configuration not stated), for which the cytotoxicity at 70.5 h was -4.4%.
Consider `CCc1nnc(NC(=O)c2c3c(nn2C2CCS(=O)(=O)C2)CCC3)s1` (configuration not stated), for which the cytotoxicity at 70.5 h was -6.09%.
As to `O=S(=O)(NCC1(c2cccs2)CCOCC1)c1ccc2c(c1)OCCO2`, the cytotoxicity at 70.5 h was 12%.
In the case of `COc1cccc(NC(=O)Nc2ccc3c(c2)CC(=O)N3)c1`, the cytotoxicity at 70.5 h is -16.9%.
The value for `O=S(=O)(c1cccnc1)N1CCN(Cc2nc(-c3cccs3)cs2)CC1` was -14.7%; that for `CN(C)S(=O)(=O)NCCn1nc(-c2ccccc2)n(C)c1=O` was -4.25%; that for `COCCc1nnc(NC(=O)CCCc2ccccc2)o1` was -6.03%.
Then `Cc1noc(C)c1CCC(=O)NCCc1cccs1`, with -7.09%; and `Cc1nccn1CC1CCN(C(=O)c2cccs2)CC1`, with -17.8%.
The value for `CN(C)S(=O)(=O)N1CCC(Cn2cccn2)CC1` was -7.21%; that for `CCOc1ccc(S(=O)(=O)N(CCOC)Cc2ccncc2)cc1F` was 35.3%; that for `O=C(NCC(O)(c1ccco1)C1CC1)c1c(F)cccc1Cl` (configuration not stated) was -0.808%.
For `Cn1cccc1C(O)CNC(=O)c1ccc(F)c(F)c1` (configuration not stated), the cytotoxicity at 70.5 h is -13.5%.
The value for `Cn1cccc1C(O)CNC(=O)c1ccc(C(F)(F)F)cc1` (configuration not stated) was -20.6%; that for `Cn1cccc1C(O)CNS(=O)(=O)Cc1ccccc1` (configuration not stated) was 12.5%; that for `Cn1cccc1C(O)CNS(=O)(=O)c1ccccc1F` (configuration not stated) was 3.03%.
The value for `Cc1cc(F)ccc1S(=O)(=O)NCC(O)c1cccn1C` (configuration not stated) was 0.803%; that for `Cn1cccc1C(O)CNS(=O)(=O)c1ccccc1Br` (configuration not stated) was -0.453%.
Then `COc1ccc(CC(=O)NCC(O)c2sccc2C)cc1OC` (configuration not stated), with -6.12%.
As to `Cc1ccsc1C(O)CNS(=O)(=O)Cc1ccc(F)cc1` (configuration not stated), the cytotoxicity at 70.5 h is -10.1%.
The value for `COc1ccc(F)cc1S(=O)(=O)NCC(O)c1sccc1C` (configuration not stated) was -2.63%; that for `COc1ccc(S(=O)(=O)NCC(O)c2sccc2C)cc1Cl` (configuration not stated) was 0.182%.
The value for `O=C(NCc1cccs1)NCC(O)(c1cccs1)C1CC1` (configuration not stated) was -12.2%.
The value for `O=C(NCc1ccc(F)cc1)NCC(O)(c1cccs1)C1CC1` (configuration not stated) was -8.72%.
On to `COc1ccc(CNC(=O)NCC(O)(c2cccs2)C2CC2)cc1` (configuration not stated), for which the cytotoxicity at 70.5 h is -6.74%.
The value for `CC(O)(CCc1ccccc1)CNC(=O)c1ccsc1` (configuration not stated) was -2.72%.
Regarding `CC(O)(CCc1ccccc1)CNC(=O)c1ccc(F)cc1` (configuration not stated), the cytotoxicity at 70.5 h worked out at 14.3%.
As to `O=C(NCC1(O)CCCC1)c1ccc2nsnc2c1`, the cytotoxicity at 70.5 h was -20.9%.
For `O=C(NCC(O)c1cccs1)c1ccco1` (configuration not stated), the cytotoxicity at 70.5 h is -10.6%.
As for `CN(C)c1cccc(C(=O)NCC(O)c2cccs2)c1` (configuration not stated), the cytotoxicity at 70.5 h came out at 20.3%.
With `CC(=O)c1cccc(S(=O)(=O)NCC(C)(O)c2cccs2)c1` (configuration not stated), the cytotoxicity at 70.5 h is -7.85%.
Then `COc1ccc(S(=O)(=O)NCC(C)(O)c2cccs2)cc1Cl` (configuration not stated), with -10.5%.
The value for `Cc1nc(C)c(CC(=O)NCc2ccccc2F)s1` was -11.1%; that for `COC1CCN(C(=O)Cn2ccc3ccccc32)CC1` was -3.16%; that for `O=C(Cn1cccn1)Nc1ccc(N2CCOCC2)cc1` was 0.51%.
Consider `O=C(CNC(=O)c1c[nH]c2ccccc12)NCCCn1ccnc1`, for which the cytotoxicity at 70.5 h is -5.85%.
Then `Cc1cc(NC(=O)Cn2cnc(-c3cccs3)cc2=O)no1`, with -2.01%; and `O=C(NCC1(CO)CC1)c1ccccc1F`, with -8.21%; and `COc1nn(C)cc1C(=O)NCC(=O)NCc1ccccn1`, with -11%.
Take `Cc1nc(C)n(CC2CCCN(Cc3ccc(F)cc3C#N)C2)n1` (configuration not stated): the cytotoxicity at 70.5 h was -1.49%.
In the case of `Cc1cc(C)n(C2CCCN(C(=O)CCc3nccs3)C2)n1` (configuration not stated), the cytotoxicity at 70.5 h came to 28.2%.
In the case of `CC1COCCN1Cc1nc(-c2ccc(Br)s2)no1` (configuration not stated), the cytotoxicity at 70.5 h is 1.52%.
The value for `Cc1nn(C)c(Cl)c1C1CCCN1C(=O)c1cc(C2CC2)on1` (configuration not stated) was 3.63%; that for `COc1ccc(CCNC(C)c2ccc3[nH]c(=O)[nH]c3c2)cc1OC` (configuration not stated) was 3.32%; that for `Cc1ncc(CN2CCCC(c3cc(C(N)=O)[nH]n3)C2)s1` (configuration not stated) was 57.9%.
For `c1cnnc(N2CCCC(NCc3nc(-c4ccco4)no3)C2)c1` (configuration not stated), the cytotoxicity at 70.5 h was determined as 46.2%.
The value for `CSc1ccc(C(=O)N2CCOCC2c2c(C)n[nH]c2C)o1` (configuration not stated) was 18.3%; that for `Cc1n[nH]c(C)c1C1COCCN1C(=O)c1n[nH]c2ccccc12` (configuration not stated) was 12.3%.
Then `Cc1ccoc1-c1nnc(CNC2CCCN(c3cccnn3)C2)o1` (configuration not stated), with 12.6%; and `CC(C)c1nnc2n1CCN(Cc1nc(-c3ccoc3)no1)C2`, with 16.7%; and `Cc1ncsc1C(=O)N(C)Cc1cccnc1`, with -9.5%.
For `Cc1ccccc1C1(C(=O)NCCN2CCOCC2)CCOCC1`, the cytotoxicity at 70.5 h is -9.98%.
On to `Cc1cc(CNc2cccc(Cl)c2C)no1`, for which the cytotoxicity at 70.5 h is -17.1%.
The value for `CCOc1ncccc1CNC(=O)c1cccc(C)n1` was -17.3%; that for `Cc1n[nH]c(C)c1C1COCCN1C(=O)c1cc(F)ccc1F` (configuration not stated) was -8.76%.
Then `Cc1n[nH]c(C)c1C1COCCN1C(=O)c1cccc(F)c1F` (configuration not stated), with -15.7%; and `CN(C)c1cc(CNC(=O)Nc2ccc(C#N)cc2)ccn1`, with -11.3%.
With `NC(=O)C1CCN(C(=O)NCCOc2ccc3c(c2)CCC3)CC1`, the cytotoxicity at 70.5 h is -6.38%.
The value for `CC(=O)NCC1CCN(C(=O)NCCOc2ccc3c(c2)CCC3)CC1` was -11.5%; that for `COc1ccc(Cl)cc1NCc1cc(C)on1` was -3.4%; that for `COc1ccc(OCCNC(=O)N2CCS(=O)(=O)CC2)cc1` was -7.97%.
Consider `c1ccc(-n2cc(CNC3CCc4ncnn4C3)nn2)cc1` (configuration not stated), for which the cytotoxicity at 70.5 h is -7.65%.
Consider `O=C(O)c1cc(S(=O)(=O)N2CCOc3ccccc32)ccc1Br`, for which the cytotoxicity at 70.5 h is -2.35%.
For the molecule `Cc1ccc(NC(=O)C2CSCN2C(=O)c2cnccn2)cc1C` (configuration not stated), the cytotoxicity at 70.5 h is -9.37%.
`CSCCc1ccc(NC(=O)NCc2ccnc(N(C)C)c2)cc1`: the cytotoxicity at 70.5 h turned out to be 16.5%.
Then `Cc1oc(-c2ccco2)nc1CNC1CCCN(c2cccnn2)C1` (configuration not stated), with -9.89%.
With `CC(=O)N1CCCN(C(=O)NCCOc2ccc3c(c2)CCC3)CC1`, the cytotoxicity at 70.5 h is -4.61%.
Then `Cc1noc(C)c1S(=O)(=O)NC(=O)COc1ccc2c(c1)CCC2`, with -13.5%; and `CN(C)c1cc(CNc2ccc(S(=O)(=O)C(C)(C)C)nc2)ccn1`, with 8.83%.
On to `Cc1cccc(C)c1OCC(=O)NS(=O)(=O)c1c(C)noc1C`, for which the cytotoxicity at 70.5 h is -14.4%.
Turning to `Cc1n[nH]c(C)c1C1COCCN1C(=O)c1ccc2c(c1)CCO2` (configuration not stated), the cytotoxicity at 70.5 h is -8%.
Then `Cc1nn(C)c(N(C)C)c1CNCCCNS(C)(=O)=O`, with 4.14%.
For `COCc1nc(C(=O)NS(=O)(=O)c2cc(Br)ccc2C)cs1`, the cytotoxicity at 70.5 h came to 1.93%.
As for `O=C(c1cccc(N2CCCC2=O)c1)N1CCCC(n2cccn2)C1` (configuration not stated), the cytotoxicity at 70.5 h is -6.59%.
For the molecule `O=C(c1cccc(Cn2ccnc2)c1)N1CCCC(n2cccn2)C1` (configuration not stated), the cytotoxicity at 70.5 h came to 5.77%.
As to `CCOc1ccc(C(=O)N2CCN(c3nccn3C)CC2)cc1`, the cytotoxicity at 70.5 h is -0.809%.
The value for `Cn1ccnc1N1CCN(C(=O)Cc2ccccc2)CC1` was -8.11%.
Take `COc1ccc(CC(=O)N2CCN(c3nccn3C)CC2)cc1`: the cytotoxicity at 70.5 h was -1.27%.
In the case of `Cc1cccc(CC(=O)N2CCN(c3nccn3C)CC2)c1`, the cytotoxicity at 70.5 h is -1.55%.
Regarding `CCOc1ccc(CC(=O)N2CCN(c3nccn3CC)CC2)cc1`, the cytotoxicity at 70.5 h is -1.22%.
On to `CCCc1nnsc1C(=O)N1CCN(CC(O)C2CC2)CC1` (configuration not stated), for which the cytotoxicity at 70.5 h came to 14.6%.

The values are drawn from ChEMBL document CHEMBL3507680, “University of Dundee, Gates Library screen for HepG2 cell viability”.
